Test results: US8642793B1, “Biosurfactant produced by Aureobasidium pullulans” (Gyeongbuk Institute for Marine Bio-industry, priority 2012, dated 2014)
Like-named read-outs stand apart in the source and are kept apart here.

Tests used:
[1] = Measurement of surface tension with a surface tension meter (Sigma 700, KSV Instruments); type: physicochemical
Description: Compound L9 isolated in Example 1 was dropped on a hydrophobic film, and surface tension variation was observed using a surface tension meter (Densitometer, Sigma 700 Densitometer (KSV Instruments Ltd., Finland)). Water was a control, and a culture medium and the size of compound L9 were compared. The numerical value of the surface tension was shown as (dyne/cm (or mN/m)). When a surfactant that has a hydrophobic moiety and a hydrophilic moiety is added to water, surface tension decreases. […] As the intermolecular interaction increases, the surface tension increases. Surface tensions of Compound L9 and known materials produced by bacteria (Table 2) and yeasts (Table 3) were measured, and the results are shown in Tables 2 and 3 below.

[2] = reference liquids of Table 1, no amount given; cited from earlier work

Compound: CCCCC[C@@H](O)C[C@@H](O)CC(=O)O[C@H](CCCCC)C[C@@H](O)CC(=O)O[C@H](CCCCC)C[C@@H](O)CC(=O)OCC(O)CO (stereo partly shown) [Compound L9]
- Surface tension ([1]; amount of material 1.5 mg/L): 31.5 dyne/cm
- Surface tension ([1]; at 1.5 mg/litter): 31.5 mN/m
- degree of activity (surface tension) ([1]; summary statement, no amount given): 31 dyne/cm

Compound: OCC(O)CO [Glycerin]
- Surface tension [2]: 63 dyne/cm

Compound: Flavolipid
- Surface tension ([1]; amount of material 300 mg/L): 26.0 dyne/cm

Compound: Iturin
- Surface tension ([1]; amount of material 20 mg/L): 43.0 dyne/cm

Compound: Rhamnolipid
- Surface tension ([1]; amount of material 30 mg/L): 31.4 dyne/cm

Compound: Sophorolipid
- Surface tension ([1]; amount of material 40 mg/L): 35.0 dyne/cm

Compound: Trehalos lipid
- Surface tension ([1]; amount of material 25 mg/L): 24.1 dyne/cm

Compound: Trehalose lipid
- Surface tension ([1]; amount of material 0.7 mg/L): 43.0 dyne/cm
